Here are results for one compound from paper PMC6335953, “Triggering the expression of a silent gene cluster from genetically intractable bacteria results in scleric acid discovery” (Chemical Science, 2018).

Structures are written as SMILES.

In test [1] the target is T1, nicotinamide N-methyltransferase (NNMT) (Homo sapiens, UniProt P40261).
T1 sequence (P40261 1-264): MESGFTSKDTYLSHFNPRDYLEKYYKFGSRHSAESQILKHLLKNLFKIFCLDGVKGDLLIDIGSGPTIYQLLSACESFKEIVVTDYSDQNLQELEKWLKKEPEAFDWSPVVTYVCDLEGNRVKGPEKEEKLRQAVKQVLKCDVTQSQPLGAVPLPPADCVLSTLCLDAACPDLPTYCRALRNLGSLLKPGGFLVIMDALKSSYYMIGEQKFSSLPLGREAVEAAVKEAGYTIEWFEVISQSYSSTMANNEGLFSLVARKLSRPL
The test can be described thus: NNMT concentration-response assay (MNAN and SAH product readouts), Eli Lilly OIDD; enzyme source not stated in main text. The test is classed as biochemical.

In test [2] the test system is T2, Acinetobacter baumanii ATCC 19606.
T2 construct: ATCC 19606
The test can be described thus: microbe, parasite or virus in culture. On the set-up: CLSI broth microdilution MIC in 96-well plates, cation-adjusted Mueller-Hinton broth. The note with it: Acinetobacter baumannii, ATCC19606. Here is the method: (§1) The susceptibility of bacterial strains was investigated in collaboration with the Warwick Antimicrobial Screening Facility in a 96-well plate experiment, according to the Clinical & Laboratory Standards Institute (CLSI) guidelines (M7-A9 2012). Scleric acid was diluted to a concentration of 7.5 mg mL^–1 in 25% DMSO in distilled water. […] This was then further doubling diluted throughout the MIC. Meropenem and cefoxitin were used as positive controls during MIC testing. The antimicrobial activity of scleric acid was assessed. Inhibitory activity against representatives of the ESKAPE panel of pathogens: Enterococcus faecium, Staphylococcus aureus, Klebsiella pneumoniae, Acinetobacter baumannii, Pseudomonas aeruginosa, and Enterobacter cloacae was first screened but all strains appeared to be resistant to scleric acid, giving no observable MIC (ESI Table S6 ^†).

The subject of test [3] is T3, Enterobacter cloacae NCTC 13405.
T3 construct: NCTC 13405
Put plainly: microbe, parasite or virus in culture. On the set-up: CLSI broth microdilution MIC in 96-well plates, cation-adjusted Mueller-Hinton broth. The note with it: NCTC13405. Here is the method:
as §1

The subject of test [4] is T4, Enterococcus faecium ATCC 12202.
T4 construct: ATCC 12202
Put plainly: microbe, parasite or virus in culture. Also on record: CLSI broth microdilution MIC in 96-well plates, cation-adjusted Mueller-Hinton broth. The note with it: ATCC12202. On the procedure:
as §1

Test [5] concerns T5, Klebsiella pneumoniae ATCC 700603.
T5 construct: ATCC 700603
The test can be described thus: microbe, parasite or virus in culture. On the set-up: CLSI broth microdilution MIC in 96-well plates, cation-adjusted Mueller-Hinton broth. The settings on record: ATCC700603. Here is the method:
as §1

In test [6] the test system is T6, Pseudomonas aeruginosa ATCC 27853.
T6 construct: ATCC 27853
Put plainly: microbe, parasite or virus in culture. Also on record: CLSI broth microdilution MIC in 96-well plates, cation-adjusted Mueller-Hinton broth. The note with it: ATCC27853. On the procedure: as §1

Test [7] concerns T7, Staphylococcus aureus USA300.
T7 construct: USA300 (ATCC BAA-1717)
Put plainly: microbe, parasite or virus in culture. Also on record: CLSI broth microdilution MIC in 96-well plates, cation-adjusted Mueller-Hinton broth. On the procedure:
as §1

Regarding `O=C(OCC(=O)N1CCC[C@H]1C(=O)O)c1ccccc1` [compound 2, (2-(benzoyloxy)acetyl)-L-proline], in test [1], half-maximal inhibition (IC50) was put at 178 µM. In addition, the MIC in test [2], in test [3], in test [4], in test [5], in test [6] and in test [7] was > 1020 µg/mL each time.

For orientation: IC50 means the concentration that inhibits the measured activity by half. Low readings indicate higher potency, high ones lower potency.
